Paper PMC4595804, “A strategy to discover decoy chemokine ligands with an anti-inflammatory activity” (Scientific Reports, 2015)

Assays:
CCL22 = molecular target: T1, CCL22 (Homo sapiens, UniProt O00626); experiment: CCL22-induced CCR4+ HUT78 T cell chemotaxis (Transwell), neutraligand protocol; type: cell-based; conditions: 3 nM CCL22 preincubated 1 h with compound; read-out: IC50, inhibition of CCL22-induced HUT78 chemotaxis
T1 construct: codes for the mature CCL17 or CCL22 with an N-terminal thioredoxin-hexahistidin (TRX- (His)6) tag; thioredoxin (TRX) (N, cleaved yes); (His)6 (N, cleaved yes); made in house; host or cells: E. coli BL21 (DE3)
T1 sequence (O00626 25-93): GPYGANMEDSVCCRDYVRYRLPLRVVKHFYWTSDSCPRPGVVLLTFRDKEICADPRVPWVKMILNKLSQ
Method: Figure 6 (a) Selectivity of CCL17 and CCL22 neutraligands towards 10 chemokines according to the “neutraligand protocol”. […] Each column represents the mean (block) ± SD (bars) of n = 3 experiments performed in triplicate. *p < 0.05; **p < 0.01; ***p < 0.005 as compared to chemokine + DMSO. (b) Chemokine neutraligands inhibited CCR4 endocytosis induced by CCL22 or CCL17. EGFP-CCR4^+ HEK cells were incubated for 30 min with DMSO or chemokine (100 nM CCL22 or CCL17) in the presence or absence of test compounds. […] Cell surface EGFP-tagged CCR4 receptors were measured by EGFP antibody labeling and flow cytometry analysis. CCR4 internalization was expressed as a percentage of total receptor surface expression calculated using control cells incubated with DMSO (100%). […] The number of migrating cells in the presence of chemokine and compounds were expressed as the corresponding percentages. Results were analyzed by fitting the experimental curves (% of migrating cells vs log compound concentration) using the Kaleidagraph software program, and the corresponding IC50 values were calculated. […]
The T- cell line, HUT78 (ATCC), was cultured in RPMI 1640 supplemented with streptomycin, penicillin and 10% FCS without phenol red. […] After a 2 h incubation at 37 °C and 5%CO2, the plates were read with an excitation wavelength of 485 nm and an emission wavelength of 535 nm. […]

COX2 = molecular target: T2, COX2 (Homo sapiens, UniProt P35354); experiment: COX2 mediated PGE2 release in LPS-treated primary monocytes; type: cell-based; conditions: 100 µM, monocytes + LPS + arachidonic acid
T2 construct: endogenous in cells; host or cells: primary human monocytes treated with LPS
Method: the wound closure was determined as the difference between wound width at times 0 and 72h. This experiment was repeated three times.
Human primary monocytes were isolated from buffy coats of healthy human blood donors and seeded in 24-well plates (500,000 cells/ml in 1ml) for COX-1/2 activity or 96-well plates for cell viability experiments.
Cells were seeded in 96 well plates (5,000 cells/well in 200µl) for cytotoxicity testing (Alamar […]
doses). After 24h, cytotoxicity was evaluated in the wells using the Alamar Blue method. NaF (250µg/ml) was used as a control in this experiment.
Cyclooxygenase (COX) activity
COX1 mediated prostaglandin E2 (PGE2) release. Monocytes were treated with arachidonic […]
were then collected for the determination of PGE2 by enzyme immunoassay (EIA) […]
COX2 mediated prostaglandin E2 (PGE2) release. Monocytes were incubated with LPS (10U/ml) for 24h to induce COX2 protein synthesis. After renewal of medium (serum free), […]
before AA treatment. The activity of COX2 was determined by measuring PGE2 (Cayman) in the supernatants by EIA. Aspirin (10µM) and diclofenac (10µM) were used as control […]
NaF (250µg/ml) was used as a control (relative light unit, r.l.u). (c) Monocytes were treated […]
GPN136 (grey bars). The activity of COX1 was determined by measuring prostaglandin E2 (PGE2). […]
of COX2 was determined by measuring PGE2. […]

T2 sequence (P35354 18-604): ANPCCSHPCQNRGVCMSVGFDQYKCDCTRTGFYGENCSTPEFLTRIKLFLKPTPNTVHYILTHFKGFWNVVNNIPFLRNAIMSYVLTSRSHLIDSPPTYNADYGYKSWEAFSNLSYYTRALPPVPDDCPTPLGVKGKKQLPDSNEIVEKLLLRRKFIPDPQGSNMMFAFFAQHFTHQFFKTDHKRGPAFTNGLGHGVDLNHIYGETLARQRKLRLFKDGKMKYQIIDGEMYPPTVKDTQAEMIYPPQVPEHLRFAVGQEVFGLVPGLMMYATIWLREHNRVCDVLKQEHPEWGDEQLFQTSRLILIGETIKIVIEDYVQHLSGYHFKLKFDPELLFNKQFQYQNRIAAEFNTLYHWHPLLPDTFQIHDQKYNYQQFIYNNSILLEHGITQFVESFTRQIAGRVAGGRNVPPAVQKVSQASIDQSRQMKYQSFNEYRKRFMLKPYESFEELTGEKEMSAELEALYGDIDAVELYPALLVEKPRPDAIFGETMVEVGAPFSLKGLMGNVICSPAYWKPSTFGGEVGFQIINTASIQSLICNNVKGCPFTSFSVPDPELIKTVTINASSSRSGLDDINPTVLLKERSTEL

Row | IC50 (CCL22) [nM] | SMILES | effect on COX2 activity (PGE2) (COX2)
1 | 0.34 ± 0.1 | O=C(OCC(O)CO)c1ccccc1O (centres unmarked) [GPN136, 2,3-dihydroxypropyl 2-hydroxybenzoate] | –
2 | – | CC(C)=CCn1cnc2c1c(=O)n(C)c(=O)n2C [GPN279, 1,3-dimethyl-7-(3-methylbut-2-enyl)-1H-purine-2,6(3H, 7H)-dione] | no effect
